Reference: patent publication US20230293482A1, “CENTRAL NERVOUS SYSTEM POTENTIATING COMPOSITION” (priority 2020, published 2023)

Legend:
healthy volunteers = experiment: Astringency sensory test, solutions held in oral cavity; type: in vivo, human; conditions: for astringency felt on oral ingestion: compared with other polyphenol compounds; for concentration at which astringency is exhibited in almost all cases: gradually diluted solutions held in oral cavity, ten healthy volunteers
From the text: Ten healthy volunteers held in their oral cavity, solutions obtained by gradually diluting (2R,3R)-2-(3,4-dihydroxyphenyl)-3,4-dihydro-2H-chromene-3,5,7-triol, and a dimer, a trimer or a tetramer obtained by condensing the above compound by a 4β→8 bond, 2-(3,4-dihydroxyphenyl)chromenylium-3,5,7-triol or 2-(3,4,5-trihydroxylphenyl)chromenylium-3,5,7-triol, 2-(3,4-hydroxyphenyl-3,5,7-trihydroxy-4H-1-benzopyran-4-one (quercetin), (2R,3R)-5,7-dihydroxy-2-(3,4,5-trihydroxyphenyl)-3,4-dihydro-2H-chromen-3-yl] 3,4,5-trihydroxybenzoate (EGCG), (2S)-5-hydroxy-2-(3-hydroxy-4-methoxyphenyl)-7-[(2S,3R,4S,5S,6R)-3,4,5-trihydroxy-6-[[(2R,3R,4R,5R,6S)-3,4,5- trihydroxy-6-methyloxan-2-yl]oxymethyl]oxan-2-yl]oxy -2,3-dihydrochromen-4-one (hesperidin), 7-hydroxy-3-(4-hydroxyphenyl)chromen-4-one (daidzein), and (1E,6E)-1,7-bis(4-hydroxy-3-methoxyphenyl)hepta-1,6-diene-3,5-dione (curcumin), and the concentrations at which the volunteers felt astringency were then observed.

Wistar male rats [1] = experiment: Blood flow of the cremasteric arteriole, 50% effective dose; type: in vivo; conditions: 1, 10, 100, 1000 μg/kg of body weight intragastric, 60 minutes after administration, laser Doppler
Description: Cannula was inserted into the stomach of Wistar male rats under anesthesia, and the cremaster muscle was prepared, Not only a dimer, a trimer or a tetramer obtained by condensing (2R,3R)-2-(3,4-dihydroxyphenyl)-3,4-dihydro-2H-chromene-3,5,7-triol by a 4β→8 bond, 2-(3,4-dihydroxylphenyl)chromenylium-3,5,7-triol, or 2-(3,4,5-trihydroxyphenyl)chromenylium-3,5,7-triol, but also (2R,3R)-2-(3,4-dihydroxyphenyl)-3,4-dihydro-2H-chromene-3,5,7-triol, 2-(3,4-hydroxyphenyl-3,5,7-trihydroxy-4H-1-benzopyran-4-one (quercetin), (2R,3R)-5,7-dihydroxy-2-(3,4,5-trihydroxyphenyl)-3,4-dihydro-2H-chromen-3-yl] 3,4,5-trihydroxybenzoate (EGCG), (2S)-5-hydroxy-2-(3-hydroxy-4-methoxyphenyl)-7-[(2S,3R,4S,5S,6R)-3,4,5-trihydroxy-6-[[(2R,3R,4R,5R,6S)-3,4,5-trihydroxy-6-methylaxan-2-yl]oxymethyl]oxan-2-yl]oxy-2,3-dihydrochromen-4-one (hesperidin), 7-hydroxy-3(4-hydroxyphenyl)chromen-4-one (daidzein), (1E,6E)-1,7-bis(4-hydroxy-3-methoxyphenyl)hepta-1,6-diene-3,5-dione (curcumin), 5-[(E)-2-(4-hydroxyphenypenyl)ethenyl]-1,3-benzenediol (resveratrol), and (2R,3R)-2-(4-hydroxyphenyl)-3-(3,5-dihydroxyphenyl)-6-[(E)-4-hydroxystyryl]-2,3-dihydrobenzofuran-4-ol (Gnefin C), were administered to the rats at doses of 1, 10, 100, and 1000 μg/kg of body weight. A fluctuation in the blood flow of the cremasteric arteriole 60 minutes after the administration was measured using a laser Doppler blood-flowmeter. […] The 50% effective dose of the compound obtained by condensing (2R,3R)-2-(3,4-dihydroxyphenyl)-3,4-dihydro-2H-chromene-3,5,7-triol by a 4β→8 bond was in the range of 1 to 30 μg/kg of body weight, whereas the 50% effective dose of 2-(3,4-dihydroxyphenyl)chromenylium-3,5,7-triol or 2-(3,4,5-trihydroxylphenyl)chromenylium-3,5,7-triol was in the range of 50 to 100 μg/kg of body weight.

Wistar male rats [2] = experiment: Blood pressure after repeated administration with/without N-acetylcysteine; type: in vivo
Description: Wistar male rats were divided into 4 groups, and thereafter, 2-(3,4-dihydroxyphenyl)-3-(D-glucopyranooxyl)chromenylium-3,5,7-triol (1 mg/kg of body weight) and/or N-acetylcysteine (100 mg/kg of body weight) were co-administered to the laboratory animals for 14 days. Thereafter, the blood pressure of the animals was measured over time, using a non-heated type sphygmomanometer.

Wistar male rats [3] = experiment: Neovascularization, CD31 immunostaining of muscle; type: in vivo; conditions: 1 mg/kg of body weight for 14 days, compared with control group
Description: Wistar male rats were divided into 2 groups, and thereafter, a tetramer of 2-(3,4-dihydroxyphenyl)-3-(D-glucopyranooxyl)chromenylium-3,5,7-triol (1 mg/kg of body weight) was co-administered. to the laboratory animals for 14 days, Thereafter, the animals were subjected to dissection. A frozen section was prepared from the excised extensor digitorum longus muscle or soleus muscle, and CD31 serving as a neovascularization marker was then detected by applying an immunostaining method.

C57BL/6 male mice = experiment: Open field locomotor activity / wakening after single administration; type: in vivo; conditions: 25 μg/kg of body weight, open field 60 minutes; for locomotor activity: compared with control group; for wakening state: control animals repeated sleeping and wakening

SMILES	astringency felt on oral ingestion (healthy volunteers)	concentration at which astringency is exhibited in almost all cases (healthy volunteers) [µg/mL]	fluctuation in the blood flow of the cremasteric arteriole (Wistar male rats [1])	blood pressure change on co-administration with N-acetylcysteine (Wistar male rats [2]; 1 mg/kg of body weight + N-acetylcysteine 100 mg/kg for 14 days)	blood pressure (Wistar male rats [2]; 1 mg/kg of body weight for 14 days, Day 7 and Day 14)	CD31 expression / neovascularization in extensor digitorum longus or soleus muscle (Wistar male rats [3])	locomotor activity (C57BL/6 male mice)	wakening state (C57BL/6 male mice)
Oc1cc(O)c2cc(O)c(-c3cc(O)c(O)c(O)c3)[o+]c2c1 [2-(3,4,5-trihydroxylphenyl)chromenylium-3,5,7-triol]	strong astringency	10	dose-dependent blood flow-increasing action					
OC[C@H]1OC(Oc2cc3c(O)cc(O)cc3[o+]c2-c2ccc(O)c(O)c2)[C@H](O)[C@@H](O)[C@@H]1O (stereo partly drawn) [2-(3,4-dihydroxyphenyl)-3-(D-glucopyranooxyl)chromenylium-3,5,7-triol]				disappeared	significantly decreased	a significant expression of CD31 was observed		
Oc1cc(O)c2cc(O)c(-c3ccc(O)c(O)c3)[o+]c2c1 [2-(3,4-dihydroxyphenyl)chromenylium-3,5,7-triol]	strong astringency	10	dose-dependent blood flow-increasing action				significantly increased	the animals were in a wakening state
Oc1cc(O)c2c(c1)O[C@H](c1ccc(O)c(O)c1)[C@H](O)[C@H]2c1c(O)cc(O)c2c1O[C@H](c1ccc(O)c(O)c1)[C@H](O)C2 [dimer]		10	dose-dependent blood flow-increasing action				significantly increased	the animals were in a wakening state
Oc1cc(O)c2c(c1)O[C@H](c1ccc(O)c(O)c1)[C@H](O)[C@H]2c1c(O)cc(O)c2c1O[C@H](c1ccc(O)c(O)c1)[C@H](O)[C@H]2c1c(O)cc(O)c2c1O[C@H](c1ccc(O)c(O)c1)[C@H](O)C2 [trimer]		10	dose-dependent blood flow-increasing action				significantly increased	the animals were in a wakening state
